Holding throughout (type): biochemical
The target in one experiment is T1, trypsin (Bos taurus, UniProt P00760).
T1 construct: gene PRSS1
T1 sequence (P00760 24-246): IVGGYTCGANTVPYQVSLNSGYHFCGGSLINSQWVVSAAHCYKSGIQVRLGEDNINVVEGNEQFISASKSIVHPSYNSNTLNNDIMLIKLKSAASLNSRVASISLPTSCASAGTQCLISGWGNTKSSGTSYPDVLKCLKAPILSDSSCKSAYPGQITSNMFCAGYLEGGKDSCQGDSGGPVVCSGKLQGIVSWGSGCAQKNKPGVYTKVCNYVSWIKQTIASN
In words: Inhibitory activity for trypsin. The conditions noted are these: FXa versus trypsin.

The next experiment concerns the target T2, human FXa (Homo sapiens, UniProt P00742).
T2 construct: purchased Enzyme Research Laboratories, Inc
Description: Measurement of human FXa inhibitory action (chromogenic substrate S-2222). To be noted: human FXa 0.019 U/ml, S-2222 0.4 mM, 37° C., pH 7.5. The method, then:
In vitro FXa inhibitory activity is measured in accordance with the method of Kettner et al. (Journal of Biological Chemistry, vol. 265, pages 18289 to 18297, 1990). To be more specific, human FXa (product of Enzyme Research Laboratories, Inc., 0.019 U/ml) is mixed with a test compound diluted with dimethylsulfoxide (DMSO) at various concentrations and a synthetic substrate S-2222 (Chromogenix AB, 0.4 mM). The mixtures are incubated at 37° C. in Tris-hydrochloric acid buffer (pH 7.5) while the absorbance at 405 nm is measured continuously. To calculate the FXa inhibitory activity of the test compound, the initial reaction velocity is compared with the value for a control containing no test compound. It should be noted that the FXa inhibitory activity of the test compound is generally indicated as IC50.

Another experiment relates to human plasma. Description: Measurement of intrinsic coagulation time (APTT) in vitro. Here is the method:
Activated partial thromboplastin time (APTT) is measured in the presence of the test compounds diluted at various concentrations. A test compound diluted with DMSO at various concentrations is mixed with human plasma and APTT reagent. The mixture is incubated at 37° C. for 2 minutes; calcium chloride (25 mM) is added to the mixture; and the coagulation time is thereafter measured. It should be noted that the anticoagulant activity of the test compound is described in terms of the concentration required to double the coagulation time for the case where no test compound is added.

T2 sequence (P00742 235-488 limits assumed): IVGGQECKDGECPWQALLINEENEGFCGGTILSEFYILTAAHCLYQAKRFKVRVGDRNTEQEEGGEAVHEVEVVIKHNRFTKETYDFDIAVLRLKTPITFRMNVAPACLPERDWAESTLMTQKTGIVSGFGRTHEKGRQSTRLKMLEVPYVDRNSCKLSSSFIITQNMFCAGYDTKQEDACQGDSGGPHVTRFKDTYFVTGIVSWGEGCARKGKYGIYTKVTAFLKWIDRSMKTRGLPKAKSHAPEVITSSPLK
T2 sequence (P00742 41-179 partner limits assumed): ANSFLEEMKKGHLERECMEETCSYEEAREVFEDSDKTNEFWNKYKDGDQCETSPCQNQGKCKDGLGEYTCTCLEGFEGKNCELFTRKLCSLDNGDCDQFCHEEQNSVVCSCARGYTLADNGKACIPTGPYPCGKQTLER

As for `COCC12CN(S(=O)(=O)c3ccc4cc(Cl)ccc4c3)CC(=O)N1CC1(CCN(c3ccncc3)CC1)O2` (single isomer, unassigned; (-)) [Compound A, (−)-1,4-diaza-4-(6-chloronaphthalen-2-ylsulfonyl)-6-(methoxymethyl)-7-oxa-1′-(4-pyridyl)spiro[bicyclo[4.3.0]nonane-8,4′-piperidin]-2-one], the selectivity for trypsin entry on trypsin is “remarkably high selectivity”.

For `COCC12CN(S(=O)(=O)c3ccc4cc(Cl)ccc4c3)CC(=O)N1CC1(CCN(c3ccncc3)CC1)O2` (stereo not drawn) [Example 1, 1,4-Diaza-4-(6-chloronaphthalen-2-ylsulfonyl)-6-(methoxymethyl)-7-oxa-1′-(4-pyridyl)spiro[bicyclo[4.3.0]nonane-8,4′-piperidin]-2-one], the IC50 (in general, the concentration needed to halve the response being measured) at human FXa stood at 3.2 nM.

For `O=C(O)COCC12CN(S(=O)(=O)c3ccc4cc(Cl)ccc4c3)CC(=O)N1CC1(CCN(c3ccncc3)CC1)O2` (stereo not drawn) [Example 5, 1,4-Diaza-4-(6-chloronaphthalen-2-ylsulfonyl)-6-(carboxymethoxymethyl)-7-oxa-1′-(4-pyridyl)spiro[bicyclo[4.3.0]nonane-8,4′-piperidin]-2-one], the IC50 against human FXa came to 2.9 nM. Also, in the experiment on human plasma, the “Concentration required to double coagulation time” value (from here on “Concentration required”) stood at 0.43 µM.

`O=C1CN(S(=O)(=O)c2ccc3cc(Cl)ccc3c2)CC2OC3(CCN(c4ccncn4)CC3)CN12` (stereo not drawn) [Example 10, 1,4-Diaza-4-(6-chloronaphthalen-2-ylsulfonyl)-7-oxa-1′-(4-pyrimidinyl)spiro[bicyclo[4.3.0]nonane-8,4′-piperidin]-2-one] gave an IC50 against human FXa of 5.4 nM.

`CCOC(=O)C12CN(S(=O)(=O)c3ccc4cc(Cl)ccc4c3)CC(=O)N1CC1(CCN(c3ccncc3)CC1)O2` (stereo not drawn) [Example 25, 1,4-Diaza-4-(6-chloronaphthalen-2-ylsulfonyl)-6-(ethoxycarbonyl)-7-oxa-1′-(4-pyridyl)spiro[bicyclo[4.3.0]nonane-8,4′-piperidin]-2-one] registered an IC50 against human FXa of 1.5 nM.

In turn, `O=C1CN(S(=O)(=O)c2ccc3cc(Cl)ccc3c2)CC2(C(=O)O)OC3(CCN(c4ccncc4)CC3)CN12` (stereo not drawn) [Example 50, Ammonium 1,4-Diaza-4-(6-chloronaphthalen-2-ylsulfonyl)-7-oxa-2-oxo-1′-(4-pyridyl)spiro[bicyclo[4.3.0]nonane-8,4′-piperidine]-6-carboxylate] had a concentration for half-maximal inhibition (IC50) against human FXa of 1.9 nM.

`CCOC(=O)NCC12CN(S(=O)(=O)c3ccc4cc(Cl)ccc4c3)CC(=O)N1CC1(CCN(c3ccncc3)CC1)O2` (stereo not drawn) [Example 59, 1,4-Diaza-4-(6-chloronaphthalen-2-ylsulfonyl)-6-(ethoxycarbonylaminomethyl)-7-oxa-1′-(4-pyridyl)spiro[bicyclo[4.3.0]nonane-8,4′-piperidin]-2-one] had an IC50 at human FXa of 3.4 nM.

At human FXa, `O=C1CN(S(=O)(=O)c2ccc3cc(Cl)ccc3c2)CC2(CN3CCOCC3)OC3(CCN(c4ccncc4)CC3)CN12` (stereo not drawn) [Example 61, 1,4-Diaza-4-(6-chloronaphthalen-2-ylsulfonyl)-6-(morpholinomethyl)-7-oxa-1′-(4-pyridyl)spiro[bicyclo[4.3.0]nonane-8,4′-piperidin]-2-one] registered an IC50 of 2.8 nM.

At human FXa, `O=C1CN(S(=O)(=O)c2cc3ccc(Cl)cc3s2)CC2OC3(CCN(c4ccncc4)CC3)CN12` (stereo not drawn) [Example 213, 1,4-Diaza-4-(6-chlorobenzo[b]thiophen-2-ylsulfunyl)-7-oxa-1′-(4-pridyl)spiro[bicyclo[4.3.0]nonane-8,4′-piperidin]-2-one] showed an IC50 of 0.6 nM.

Regarding `COCC12CN(S(=O)(=O)c3cc4ccc(Cl)cc4s3)CC(=O)N1CC1(CCN(c3ccncc3)CC1)N2` (stereo not drawn) [Example 461, 1,4,7-Triaza-4-(6-chlorobenzo[b]thiophen-2-ylsulfonyl)-6-(methoxymethyl)-1′-(4-pyridyl)spiro[bicyclo[4.3.0]nonane-8,4′-piperidin]-2-one], the “Concentration required” value in the experiment on human plasma stood at 0.16 µM.

Take `COCC12CN(S(=O)(=O)c3cc4cc(Cl)ccc4o3)CC(=O)N1CC1(CCN(c3ccncc3)CC1)N2` (stereo not drawn) [Example 471, 1,4,7-Triaza-4-(5-chlorobenzo[b]furan-2-ylsulfonyl)-6-(methoxymethyl)-1′-(4-pyridyl)spiro[bicyclo[4.3.0]nonane-8,4′-piperidin]-2-one]: the “Concentration required” value in the experiment with human plasma turned out to be 0.27 µM.

Consider `COCC12CN(S(=O)(=O)c3cc4cc(Cl)ccc4o3)CC(=O)N1CC1(CCN(c3ccncc3)CC1)N2C` (stereo not drawn) [Example 533, 1,4,7-Triaza-4-(5-chlorobenzo[b]furan-2-ylsulfonyl)-6-(methoxymethyl)-7-methyl-1′-(4-pyridyl)spiro[bicyclo[4.3.0]nonane-8,4′-piperidin]-2-one], for which the “Concentration required” value in the experiment on human plasma was found to be 0.35 µM.

As for `O=C1CN(S(=O)(=O)C=Cc2ccc(Cl)s2)CC2OC3(CCN(c4ccncc4)CC3)CN12` (stereo not drawn) [Example 600, 1,4-Diaza-4-[2-(5-chlorothiophen-2-yl)ethenesulfonyl]-7-oxa-1′-(4-pyridyl)spiro[bicyclo[4.3.0]nonane-8,4′-piperidin]-2-one], the “Concentration required” value with human plasma is 0.22 µM.

As for `O=C1CN(S(=O)(=O)C=Cc2ccc(Cl)s2)CC2NC3(CCN(c4ccncc4)CC3)CN12` (stereo not drawn) [Example 628, 1,4,7-Triaza-4-[2-(5-chlorothiophen-2-yl)ethenesulfonyl]-1′-(4-pyridyl)spiro[bicyclo[4.3.0]nonane-8,4′-piperidin]-2-one], the IC50 against human FXa stood at 5.3 nM.

Take `COCC12CN(S(=O)(=O)C=Cc3ccc(Cl)s3)CC(=O)N1CC1(CCN(c3ccncc3)CC1)O2` (stereo not drawn) [Example 684, 1,4-Diaza-4-[2-(5-chlorothiophen-2-yl)ethenesulfonyl]-6-(methoxymethyl)-7-oxa-1′-(4-pyridyl)spiro[bicyclo[4.3.0]nonane-8,4′-piperidin]-2-one]: the IC50 against human FXa was found to be 1.8 nM.

Turning to `COCC12CN(S(=O)(=O)C=Cc3ccc(Cl)s3)CC(=O)N1CC1(CCN(c3ccncc3)CC1)N2` (stereo not drawn) [Example 712, 1,4,7-Triaza-4-[2-(5-chlorothiophen-2-yl)ethenesulfonyl]-6-(methoxymethyl)-1′-(4-pyridyl)spiro[bicyclo[4.3.0]nonane-8,4′-piperidin]-2-one], inhibition against human FXa was half-maximal at 1.8 nM (IC50).

On to `COCC12CN(S(=O)(=O)C=Cc3ccc(Cl)s3)CC(=O)N1CC1(CCN(c3ccncc3)CC1)N2C` (stereo not drawn) [Example 740, 1,4,7-Triaza-4-[2-(5-chlorothiophen-2-yl)ethenesulfonyl]-6-(methoxymethyl)-7-methyl-1′-(4-pyridyl)spiro[bicyclo[4.3.0]nonane-8,4′-piperidin]-2-one], for which the “Concentration required” value with human plasma turned out to be 0.18 µM.

With `O=C1CN(S(=O)(=O)c2ccc3nc(Cl)ccc3c2)CC2OC3(CCN(c4ccncc4)CC3)CN12` (stereo not drawn) [Example 760, 1,4-Diaza-4-(2-chloroquinolin-6-ylsulfonyl)-7-oxa-1′-(4-pyridyl)spiro[bicyclo[4.3.0]nonane-8,4′-piperidin]-2-one], the IC50 on human FXa was determined as 5.9 nM.

For `O=C1CN(S(=O)(=O)c2ccc3cc(Cl)ccc3c2)CC2NC3(CCN(c4ccncc4)CC3)CN12` (stereo not drawn) [Example 765, 1,4,7-Triaza-4-(6-chloronaphthalen-2-ylsulfonyl)-1′-(4-pyridyl)spiro[bicyclo[4.3.0]nonane-8,4′-piperidin]-2-one], the IC50 against human FXa was determined as 5.7 nM.

In turn, `COCC12CN(S(=O)(=O)c3ccc4nc(Cl)ccc4c3)CC(=O)N1CC1(CCN(c3ccncc3)CC1)O2` (stereo not drawn) [Example 770, 1,4-Diaza-4-(2-chloroquinolin-6-ylsulfonyl)-6-(methoxymethyl)-7-oxa-1′-(4-pyridyl)spiro[bicyclo[4.3.0]nonane-8,4′-piperidin]-2-one] gave an IC50 at human FXa of 1.8 nM.
